{
  "source": "patent US20080249144A1",
  "about": "“Preventive or Therapeutic Agent for Chronic Inflammatory Lung Disease” (KAKEN PHARMACEUITICAL CO., LTD., priority 2004, published 2008)",
  "key": {"human neutrophils": {"system": "human neutrophils", "assay": "LTB4-induced human neutrophil migration (48-well modified Boyden chamber)", "type": "cell-based", "protocol": "Leukocytes were collected from human peripheral blood samples (20 mL of venous blood was taken by a doctor) were obtained from 4 healthy adults (male). They received sufficient information on the purpose of the experiment and gave informed consent in advance. An equivalent amount of 3% dextran (M.W. 208000) saline solution was added to the heparinized blood thus obtained and the mixture was kept to stand for one hour. Thereafter, the supernatant was collected and centrifuged at 150 g for 5 minutes at 4° C. The supernatant was discarded and the pellet was repeatedly twice haemolysed. To explain in detail, 4 mL of an ice-cooled 0.2% NaCl solution was added, quickly suspended and allowed to stand for 20 to 30 seconds. Thereafter, 4 mL of an ice-cooled 1.6% NaCl solution was added to the suspension solution to return the solution to the isotonic condition. After centrifugation was performed at 150 g for 5 minutes at 4° C., the same treatment was repeated. The cell pellet obtained was finally suspended in a buffer (Hank's solution containing 0.1% FBS) and subjected to an experiment.\nThis experiment was performed using a 48-well modified Boyden chamber (Neuro Probe). To explain in detail, the wells of the bottom plate of the chamber were filled with 25 μl of vehicle solution containing 10 nmol/L of LTB4. A polycarbonate filter (PVP-free, pore size: 3 μm) was placed on the bottom plate. The top plate of the chamber was mounted and each well of the upper plate was filled with 45 μL of a leukocyte suspension solution (1.0×10^6 cells/mL) prepared with the buffer. Immediately after that, 5 μL of a test substance (10 fold concentration of a final concentration) was added to the wells. […] The numbers of cells were counted in 4 visual fields (×400) per well and the average of them was regarded as the number of migrated cells. Each test substance was evaluated using 3 wells. The average value of these wells was calculated and regarded as the value of each substance.\nThe average and standard deviation of each group were calculated. […]"}, "[1]": {"system": "murine model of BLM-induced pulmonary fibrosis", "assay": "BLM-induced pulmonary fibrosis model in mice", "type": "in vivo", "protocol": "Bleomycin chloride (BLM) was dissolved in a physiological saline solution (saline). BLM was intravenously administered to 10-week-old ICR-strain male mice once in a dose of […] to induce disease. To a non-BLM administration group, saline was administered, instead. KP-496 was administered by inhalation twice a day from the initiation date of BLM administration to the day before autopsy. To describe in brief, a mouse housed in a polyethylene container under unrestrained conditions was allowed to spontaneously inhale a mist state of KP-496 solution (0.5 w/v %) nebulized by a nebulizer for 30 minutes. Furthermore, the vehicle (saline) for KP-496 was administered by inhalation to a control group, in the same manner. A group consisted of 8 animals.\nOn the 7th day or 21st day after administration of BLM, the mouse was killed by exsanguinations under anaesthesia with pentobarbital. Immediately after that, BAL of the right lung alone was done. BAL fluid (BALF) was centrifuged and the supernatant was removed, and thereafter, precipitated cells were resuspended in saline. The total number of cells was determined by use of a particle counter analyzer. Furthermore, using the remaining cell suspension solution, a smear sample of cells was prepared and stained with Giemsa. The cells were classified according to the cell type. Based on the percentages of cell types, the numbers of classified cells were calculated.\nAfter BAL, the right lung was lyophilized. The content of hydroxyproline in the lung tissue was measured in accordance with the KISO method using chloramine T (Inayama et al., Keio J. Med., 27: 43 (1978)).\nAfter BAL, the left lung was fixed in 10 vol % neutral-buffered formalin solution. Thereafter, a paraffin section was prepared in a general way, stained with H. E. and azan and subjected to histopathologic examination of the lung. When an abnormality was observed, the degree of the abnormality was arbitrarily evaluated under blind conditions and scored based on the following 4 stages:\n0: No abnormality is observed\n1: Pathologic lesion is locally observed in a limited area of a sample\n2: Pathologic lesion is observed about a ⅓ region of a sample\n3: Pathologic lesion is observed about a ½ region of a sample\n4: Pathologic lesion is observed in substantially the entire region of a sample.\nThe average value and standard deviation of each group were obtained. Comparison between two groups, that is, between BLM administration/vehicle group and BLM administration/KP-496 group or a saline administration/vehicle group, was performed with the Student's t-test. Furthermore, histopathologic lesion scores were evaluated by the Mann-Whitney test. The significance level (P) was set at […]."}, "[2]": {"assay": "KP-496 concentration in the mouse lung tissue after inhalation", "type": "in vivo, mice", "conditions": "after 30 min inhalation of nebulized KP-496 solution (0.5 w/v %)", "protocol": "Seven-week old C57BL-strain male mice were was used. The mouse was allowed to inhale nebulized KP-496 for 30 min. through a nasal cavity to the lung tissue in the same manner as in Example 2. After completion of the inhalation, the mouse was killed by exsanguination under anaesthesia with pentobarbital. Immediately after that, the lung was excised out, weighed and freezed at −80° C. to store. A 4-fold volume of phosphate buffer was added to the lung homogenized and measured with LC-MS. The number of animals was five."}, "[3]": {"conditions": "7th day after BLM, inhalation twice a day"}, "[4]": {"conditions": "21st day after BLM, inhalation twice a day"}},
  "data": [
    {"compound": "CC(C)c1csc(COc2cccc(CN(CCCCNS(=O)(=O)c3ccc(Cl)cc3)S(=O)(=O)c3ccccc3C(=O)O)c2)n1", "note": "[KP-496, 2-{N-[4-(4-chlorobenzenesulfonylamino)butyl]-N-{3-[(4-isopropyl-2-thiazolyl)methoxy]benzyl}}sulfamoylbenzoic acid]", "values": [
      {"measurement": "suppression of LTB4-induced cell migration, concentration dependence", "setting": "human neutrophils; 10 nmol/L LTB4, human leukocytes, 1.5 hours", "result": "suppressed the cell migration in a concentration dependent manner"},
      {"measurement": "suppression of LTB4-induced neutrophil migration", "setting": "human neutrophils; test substance 1 μmol/L, 10 nmol/L LTB4", "result": "significantly suppressed"},
      {"measurement": "hydroxyproline content of the right lung lobe", "setting": "[1]; 7th day after BLM", "result": "129.9 ± 11.35", "unit": "µg"},
      {"measurement": "total number of cells in BALF", "setting": "[1]; 7th day after BLM, KP-496 0.5 w/v % inhalation twice a day", "result": "0.6±0.29 ×10^5 cells"},
      {"measurement": "number of alveolar macrophages in BALF", "setting": "[1]; [3]", "result": "0.6±0.27 ×10^5 cells"},
      {"measurement": "number of eosinophils in BALF", "setting": "[1]; [3]", "result": "0.3±0.68 ×10^3 cells"},
      {"measurement": "number of lymphocytes in BALF", "setting": "[1]; [3]", "result": "0.1±0.09 ×10^4 cells"},
      {"measurement": "number of neutrophils in BALF", "setting": "[1]; [3]", "result": "0.2±0.11 ×10^4 cells"},
      {"measurement": "histopathologic score of acute inflammation, left lung", "setting": "[1]; 7th day after BLM, score 0-4", "result": "1.0±0.76"},
      {"measurement": "hydroxyproline content of the right lung lobe", "setting": "[1]; 21st day after BLM", "result": "138.0 ± 9.93", "unit": "µg"},
      {"measurement": "number of alveolar macrophages in BALF", "setting": "[1]; [4]", "result": "0.7±0.23 ×10^5 cells"},
      {"measurement": "number of eosinophils in BALF", "setting": "[1]; [4]", "result": "0.1±0.21 ×10^3 cells"},
      {"measurement": "number of lymphocytes in BALF", "setting": "[1]; [4]", "result": "0.3±0.10 ×10^4 cells"},
      {"measurement": "number of neutrophils in BALF", "setting": "[1]; [4]", "result": "0.02±0.02 ×10^4 cells"},
      {"measurement": "total number of cells in BALF", "setting": "[1]; [4]", "result": "0.8±0.24 ×10^5 cells"},
      {"measurement": "histopathologic score of chronic inflammation, left lung", "setting": "[1]; 21st day after BLM, score 0-4", "result": "1.0±0.76"},
      {"measurement": "histopathologic score of fibrogenesis, left lung", "setting": "[1]; 21st day after BLM, score 0-4", "result": "0.6±0.52"},
      {"measurement": "content of KP-496 in murine lung", "setting": "[2]", "result": "418 ± 114", "unit": "ng"}
    ]}
  ]
}
